Source: patent US11478486B2, “Association of actives for treating prostate cancer” (priority 2017, dated 2022)

What was measured:
Assay type in all cases: cell-based, human
AR-V7 [1] = assay: CELIGO microscope observation of AR-V7 expression; details: 22Rv1 cells, 72 hours; enzalutamide 30.0 μM, SB202190 5.0 μM, LY2228820 2.5 μM; control 30.0%
Protocol: The expression of AR-V7 was observed by the CELIGO microscope in 22Rv1 cells after 72 hours of culture.

AR-V7 [2] = assay: western blot of AR and AR-V7 expression in 22Rv1 cells; details: 22Rv1, 72 hours; abiraterone 7.5 μM, enzalutamide 7.5 μM, SB202190 (504)
Protocol: Western blot analysis was performed, detecting the wild-type form of AR and the AR-V7 form as well (FIG. 7). In this way the inventors tested the involvement of the p38 inhibitor in abiraterone and enzalutamide resistance, the AR-V7.

p38 (MAPK14) = assay: p38 activation, western blot with anti-phospho-p38 antibody; details: 22Rv1 and LNCaP prostate cancer cells, 24 hours
Protocol: FIG. 1: Abiraterone induces p38 activation. Prostate cancer cells LNCaP (Androgen Receptor expressing cells) were treated with abiraterone (30 μM). Prostate cancer cells 22Rv1 (Androgen Receptor and AR-V7 expressing cells) were treated with 0.1, 1.0, 10.0 and 30.0 μM abiraterone during 24 hours. Protein were extracted and subjected to western blot analysis using anti-phospho-p38, anti-p38 and anti-tubulin antibodies. (Example 1)
[…]. A: LNCaP human prostate cells (Androgen Receptor expressing cells) were treated by enzalutamide (35.0 μM) during 24 h00. Phosphorylation p38 was assessed. Tubuline and non-phosphorylated proteins were stained as a loading control. B: same experiment with the Androgen Receptor and AR-V7 expressing 22Rv1 human prostate cancer cells (Example 1).

Row | Structure (SMILES) | % of cells with ARv7 (AR-V7 [1]) [%] | AR-V7 expression (AR-V7 [2]) | activation of MAPK p38 (phosphorylated form of p38) (p38 (MAPK14))
1 | CC(C)(C)Cn1c(N)nc2ccc(-c3[nH]c(C(C)(C)C)nc3-c3ccc(F)cc3)nc21 [LY2228820] | 34.0 |  | 
2 | Oc1ccc(-c2nc(-c3ccncc3)c(-c3ccc(F)cc3)[nH]2)cc1 [SB202190] | 28.0 | inhibits AR-V7 expression | 
3 | CNC(=O)c1ccc(N2C(=S)N(c3ccc(C#N)c(C(F)(F)F)c3)C(=O)C2(C)C)cc1F [enzalutamide] |  |  | activates the MAPK p38
